The source of these data is patent publication US20030232820A1, “Method for synthesizing oxazinones” (priority 2001, published 2003).

Data set [1] concerns tuberculosis bacilli. The following applies: in words, prior art; cited from earlier work.
Data set [2] relates to glutamate-aspartate transaminase. The following applies: in words, prior art; cited from earlier work.
Data set [3] has as its system Micrococcus luteus. Description: Agar plate filter disc test for antibacterial activity. The following applies: for Zone size: agar plate seeded with Micrococcus luteus, 12 hours at 30° C.; for antibacterial activity against Micrococcus luteus: agar plates, in words.

On to `NC1CCONC1=O` (racemic) [DL-cyclocanaline, 4-amino-tetrahydro-1,2-oxazin-3-one], for which, in data set [1], the “activity against tuberculosis bacilli” value is given as “exhibits activity”. Also, in data set [2], the “inhibition of glutamate-aspartate transaminase” value is “known to inhibit”. The results for the Zone size in data set [3] (Weight 400 micrograms on disc) and in data set [3] (Weight 600 micrograms on disc) were 48 mm and 58 mm, respectively. Moreover, the “antibacterial activity against Micrococcus luteus” value in data set [3] is reported as “exhibited activity”.

`C[C@H](C(=O)O)N1OCCCC1=O` [Compound R, 2R-(3-Oxo-[1,2]Oxazinan-2-yl)-Propionic Acid] yielded a Zone size in data set [3] (Weight 400 micrograms on disc) of 23 mm. Moreover, the “antibacterial activity against Micrococcus luteus” value in data set [3] was “exhibited activity”.

For the compound `CC(C(=O)O)N1OCCC(NC(=O)Cc2ccccc2)C1=O` (stereo not drawn) [UA, 2-(α-Carboxylethyl)-4-phenylacetylamino-1,2-oxazinan-3-one], the melting point (in general, the temperature of the solid-liquid transition) was 189 to 190 °C.

In data set [3] (Weight 10 micrograms on disc), `CC1=C(C(=O)O)N2C(=O)[C@@H](NC(=O)Cc3ccccc3)[C@H]2SC1` [desacetoxycephalosporin G] yielded a Zone size of 39 mm.
